Seven compounds from patent US20250146080A1, “METHODS FOR OVERCOMING TAZEMETOSTAT-RESISTANCE IN CANCER PATIENTS” (MEMORIAL SLOAN-KETTERING CANCER CENTER, priority 2022, published 2025) can be followed below.

Assay [1] concerns EZH2^Y666N expressing G401 rhabdoid tumor cells. In words: Cell viability (CellTiter-Glo), G401 clones expressing doxycycline-inducible EZH2^Y666N. Format: cell-based. The conditions noted are these: 10 μM drug, 14 days. The protocol: (§1) Drug and media were replaced on Days 4, 7, and 11. CellTiter-Glo assays were performed on Day 14, with luminescence readings taken using an automated fluorescence plate reader (Tecan). CellTiter-Glo reagent was freshly reconstituted on the day of measurement and added in a 1:1 proportion to cell media. […] Cell line doubling time was determined by measuring cell viability every 24 hours over the course of 4 days, and fitting the cell viability to a two-parameter exponential curve. […] After the addition of cells, drugs were added using a pin tool (stainless steel pins with 50 nL slots, V&P Scientific) mounted onto a liquid handling robot (CyBio Well vario, Analytik Jena). For analysis of synergy, we used the synergyFinder package (2). Outliers due to pinning errors were excluded after manual examination.
(ATP-based viability assays read luminescence as a measure of living cells.)

The next assay concerns the target T1, CHK1 (Homo sapiens, UniProt O14757).
T1 construct: endogenous in cells; host or cells: G401 rhabdoid tumor cells
T1 sequence (O14757 1-476): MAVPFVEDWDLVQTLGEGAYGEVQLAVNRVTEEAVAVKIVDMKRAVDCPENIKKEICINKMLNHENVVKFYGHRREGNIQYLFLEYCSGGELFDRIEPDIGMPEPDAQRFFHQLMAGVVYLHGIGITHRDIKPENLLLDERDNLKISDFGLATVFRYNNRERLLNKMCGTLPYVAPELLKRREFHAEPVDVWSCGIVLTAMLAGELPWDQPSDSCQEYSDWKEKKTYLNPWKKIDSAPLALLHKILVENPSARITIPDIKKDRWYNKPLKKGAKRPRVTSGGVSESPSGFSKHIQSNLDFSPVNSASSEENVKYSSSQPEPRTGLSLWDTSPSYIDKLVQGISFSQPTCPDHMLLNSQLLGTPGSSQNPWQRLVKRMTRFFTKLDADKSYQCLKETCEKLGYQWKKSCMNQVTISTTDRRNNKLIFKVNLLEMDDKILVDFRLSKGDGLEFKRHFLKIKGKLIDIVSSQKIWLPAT
In words: Western blot of CHK1 autophosphorylation at S296. To be noted: SRA737 3 μM, 2 days. Format: cell-based. On the procedure:
To assess protein expression by Western immunoblotting, pellets of 1 million cells were prepared and washed once in cold PBS. Cells were resuspended in 100-130 μL of RIPA lysis buffer (50 mM Tris-HCl, pH 8.0, 150 mM NaCl, 1.0% NP-40, 0.5% sodium deoxycholate, 0.1% sodium dodecyl sulfate) and incubated on ice for 10 minutes. Cell suspensions were then disrupted using a Covaris S220 adaptive focused sonicator for 5 minutes (peak incident power: 35W, duty factor: 10%, 200 cycles/burst) at 4° C. Lysates were cleared by centrifugation at 18,000 g for 15 min at 4° C. Protein concentration was assayed using the DC Protein Assay (Bio-Rad) and 15-35 μg whole cell extract was used per sample. Samples were boiled at 95° C. in Laemmli buffer (Bio-Rad) with 40 mM DTT and resolved using sodium dodecyl sulfate-polyacrylamide gel electrophoresis. Proteins were transferred to Immobilon FL PVDF membranes (Millipore), and membranes were blocked using Intercept Blocking buffer (Li-Cor). […] Blotted membranes were visualized using goat secondary antibodies conjugated to IRDye 680RD or IRDye 800CW (Li-Cor, 926-68071 and 926-32210) at 1:15,000 and the Odyssey CLx fluorescence scanner, according to manufacturer's instructions (Li-Cor). […]

For assay [2], the system named is RB1^WT G401 cells. Put plainly: Flow cytometry cell cycle analysis (EdU/propidium iodide), G401 RB1^WT. Format: cell-based. To be noted: 1 μM TAZ, 11 days. On the procedure: (§2) On Day 11, cells were pulsed with EdU for 1 hour. Cells were then harvested and processed for flow cytometry using the manufacturer's protocol (Click-iT, Invitrogen). Briefly, cells were washed with PBS with 1% BSA, permeabilized, and incubated with AlexaFluor647 for 30 minutes. DNA content was measured using propidium iodide (0.05 μg/μL). Cells were analyzed on a CytoFLEX LX (Beckman Coulter).
On the technique in general: Flow cytometry measures light scatter and fluorescence of single cells or particles in a stream.

For assay [3], the system named is RB1^del G401 cells. Put plainly: Flow cytometry cell cycle analysis (EdU/propidium iodide), G401 RB1^del clones. Format: cell-based. To be noted: 1 μM TAZ, 11 days. On the procedure:
as §2

Another assay concerns MRT and ES cell lines. In words: TAZ dose-response curves in a panel of MRT and ES cell lines. Format: cell-based. The conditions noted are these: 13 days, AUC integrated from 40 nM to 50 μM. The protocol: as §1
For a further assay, the system named is G401 cells. To be noted: single drug, 7 days; DMSO 0.061.
The test system of assay [4] is RB1^del G401 cells. In words: Cell viability (CellTiter-Glo), G401 RB1^del clones E1 and F2. The assay is classed as cell-based. To be noted: for overcoming TAZ resistance in RB1^del G401 cells: seleciclib, alisertib 9 days, barasertib 6 days; for EC50: Homo sapiens, G-401, 144 h, barasertib for 6 days, read-out: half-maximal effective concentration. On the procedure:
G401 cells with RB1 mutations were engineered by Synthego. […] Ribonucleprotein containing spCas9 and sgRNA was transfected into G401 cells by electroporation. […] The cells were then single-cell cloned and re-verified by Sanger sequencing.
as §1, with “CellTiter-Glo assays were performed on Day 14, with luminescence readings taken using an automated fluorescence plate reader (Tecan).” left out

The test system of assay [5] is RB1^WT G401 cells. In words: Cell viability (CellTiter-Glo) dose response, G401 RB1^WT. Format: cell-based. To be noted: Homo sapiens, G-401, 144 h, barasertib for 6 days, read-out: half-maximal effective concentration. The protocol: as §1

Where two headings read alike, the source gives them in different places.

On to `Cc1ncccc1-c1cnc(NCc2c(F)ccc3c2CCO3)n2cnnc12` [MAK683], for which, in assay [1], the “cell viability of EZH2^Y666N clones versus wild-type EZH2” value is given as “overcomes EZH2^Y666N-mediated resistance”.

As to `N#Cc1cnc(Nc2cc(NC[C@H]3CNCCO3)c(C(F)(F)F)cn2)cn1` [SRA737], the CHK1 auto-phosphorylation entry at CHK1 is given as “effective suppression”.

`CCN(c1cc(-c2ccc(CN3CCOCC3)cc2)cc(C(=O)NCc2c(C)cc(C)[nH]c2=O)c1C)C1CCOCC1` [TAZ, Tazemetostat]: the “proportion of cells in G1 phase upon TAZ treatment” value with RB1^WT G401 cells [2] is given as 50%; in the assay with RB1^del G401 cells [3] (RB1^del E1 clone), 31%; in the assay with RB1^del G401 cells [3] (RB1^del F2 clone), 28%. The “area under the curve (AUC) of TAZ dose responses” value in the assay with MRT and ES cell lines (resistant ES1, VAESBJ, ES2, EPI544, MP-MRT-AN cell lines) is on record as ≤ 0.3; in the assay on MRT and ES cell lines (sensitive G401, KP-MRT-NS, TTC642, A204, TM8716, KP-MRT-RY cell lines), > 0.3. The “nuclear γH2AX fluorescence, median normalized level” value in the assay on G401 cells is 0.12.

For the compound `COc1cc(Nc2ncc3c(n2)-c2ccc(Cl)cc2C(c2c(F)cccc2OC)=NC3)ccc1C(=O)O` [alisertib], the “overcoming TAZ resistance in RB1^del G401 cells” value with RB1^del G401 cells [4] is “able to overcome TAZ resistance”.

Consider `CCN(CCCOc1ccc2c(Nc3cc(CC(=O)Nc4cccc(F)c4)n[nH]3)ncnc2c1)CCOP(=O)(O)O` [barasertib], for which the results for the EC50 in the assay with RB1^WT G401 cells [5], in the assay on RB1^del G401 cells [4] (G401 RB1^del E1 clone) and in the assay on RB1^del G401 cells [4] (G401 RB1^del F2 clone) were 6.5 ± 0.5 nM, 5.5 ± 0.6 nM and 5.9 ± 0.9 nM, respectively.

On to `CC[C@H](CO)Nc1nc(NCc2ccccc2)c2ncn(C(C)C)c2n1` [seleciclib], for which, in the assay with RB1^del G401 cells [4], the “overcoming TAZ resistance in RB1^del G401 cells” value is listed as “able to overcome TAZ resistance”.

Regarding `Cc1cc(C)c(CNC(=O)c2cc(Cl)c3c(c2C)O[C@@](C)([C@H]2CC[C@H](N(C)C)CC2)O3)c(=O)[nH]1` [valemetostat], the “cell viability of EZH2^Y666N clones versus wild-type EZH2” value in assay [1] is “confers resistance”.
